Assay results published in PubChem BioAssay AID330 (DTP/NCI, 2004).
Where “and” joins values, the source holds several entries; their conditions need not be identical. Equal entries are not always repeated. Toxic doses and inconclusive results are not listed.

Tested on: P388 leukemia ip, CD2F1 mice, survival T/C
Experiment: NCI In Vivo Anticancer Drug Screen. Data for tumor model P388 Leukemia (intraperitoneal) in CD2F1 (CDF1) mice
Conditions: endpoint: median survival time, higher = longer survival
How it was run: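 Mice carrying the transplanted tumor received test compound or vehicle. Survival was recorded in each group, and the value is the treated-group measurement divided by that of the vehicle-treated control group.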

[1] = dose: 25.0 mg/kg/injection, schedule: Q01DX009 (ip), vehicle: other
[2] = dose: 50.0 mg/kg/injection, schedule: Q01DX009 (ip), vehicle: other
[3] = dose: 60.0 mg/kg/injection, schedule: Q01DX005 (ip), vehicle: saline with Tween-80
[4] = dose: 100.0 mg/kg/injection, schedule: Q01DX009 (ip), vehicle: saline
[5] = dose: 200.0 mg/kg/injection, schedule: Q01DX009 (ip), vehicle: saline
[6] = dose: 60.0 mg/kg/injection, schedule: Q01DX005 (ip), vehicle: Klucel (hydroxypropylcellulose) (HPC)
[7] = dose: 120.0 mg/kg/injection, schedule: Q01DX005 (ip), vehicle: Klucel (hydroxypropylcellulose) (HPC)
[8] = dose: 240.0 mg/kg/injection, schedule: Q01DX005 (ip), vehicle: Klucel (hydroxypropylcellulose) (HPC)

CC(=O)OCC1OC(OC(C)=O)C(NC(=O)CNC(=O)OCc2ccccc2)C(OC(C)=O)C1OC(C)=O (centres undefined)
T/C (dose: 12.5 mg/kg/injection, schedule: Q01DX009 (ip), vehicle: other): 107 % of control
T/C [1]: 100 % of control
T/C [2]: 91 % of control
T/C (dose: 100.0 mg/kg/injection, schedule: Q01DX009 (ip), vehicle: other): 89 % of control
T/C (dose: 200.0 mg/kg/injection, schedule: Q01DX009 (ip), vehicle: other): 98 % of control

CC(=O)Nc1scc[n+]1Cc1ccccc1
T/C (dose: 50.0 mg/kg/injection, schedule: Q01DX005 (ip), vehicle: Klucel (hydroxypropylcellulose) (HPC)): 100 % of control
T/C (dose: 100.0 mg/kg/injection, schedule: Q01DX005 (ip), vehicle: Klucel (hydroxypropylcellulose) (HPC)): 100 % of control
T/C (dose: 200.0 mg/kg/injection, schedule: Q01DX005 (ip), vehicle: Klucel (hydroxypropylcellulose) (HPC)): 91 % of control

O=S(=O)(Cl)CCCCS(=O)(=O)Cl
T/C (dose: 12.5 mg/kg/injection, schedule: Q01DX009 (ip), vehicle: Klucel (hydroxypropylcellulose) (HPC)): 103 % of control
T/C (dose: 25.0 mg/kg/injection, schedule: Q01DX009 (ip), vehicle: Klucel (hydroxypropylcellulose) (HPC)): 91 % of control
T/C (dose: 50.0 mg/kg/injection, schedule: Q01DX009 (ip), vehicle: Klucel (hydroxypropylcellulose) (HPC)): 99 % of control and 101 % of control

CCOC1CC2C(=O)C(CC)=C(OC)CC2(CC)CO1 (centres undefined)
T/C [3]: 98 % of control
T/C (dose: 120.0 mg/kg/injection, schedule: Q01DX005 (ip), vehicle: saline with Tween-80): 99 % of control

CSc1cccc([N+](=O)[O-])c1
T/C [4]: 95 % of control
T/C [5]: 87 % of control

COc1ccc(/C(O)=C/c2nc3ccc(Cl)cc3[nH]c2=O)cc1
T/C [6]: 101 % of control
T/C [7]: 99 % of control
T/C [8]: 91 % of control

CCNC1CC(C)(O)Cc2cc3c(c(O)c21)C(=O)c1c(O)cc2c(c1C3=O)OC1OC2(C)C(O)C(N(C)C)C1O (centres undefined)
T/C (dose: 6.25 mg/kg/injection, schedule: Q01DX009 (ip), vehicle: other): 123 % of control
T/C [1]: 154 % of control
T/C [2]: 120 % of control

CC(C)=CCCC(C)CCC1NC(C(=O)O)CS1 (centres undefined)
T/C (dose: 50.0 mg/kg/injection, schedule: Q01DX009 (ip), vehicle: saline): 94 % of control
T/C [4]: 94 % of control
T/C [5]: 95 % of control

CSC(=S)N/N=C(\Cc1ccccc1)c1ccccn1
T/C (dose: 12.5 mg/kg/injection, schedule: Q01DX005 (ip), vehicle: saline with Tween-80): 103 % of control
T/C (dose: 25.0 mg/kg/injection, schedule: Q01DX005 (ip), vehicle: saline with Tween-80): 106 % of control
T/C (dose: 50.0 mg/kg/injection, schedule: Q01DX005 (ip), vehicle: saline with Tween-80): 99 % of control and 108 % of control
T/C (dose: 100.0 mg/kg/injection, schedule: Q01DX005 (ip), vehicle: saline with Tween-80): 107 % of control
T/C (dose: 200.0 mg/kg/injection, schedule: Q01DX005 (ip), vehicle: saline with Tween-80): 107 % of control

Cc1cc(=O)n2c(nc3cc(C(=O)c4ccccc4)ccc32)s1
T/C (dose: 50.0 mg/kg/injection, schedule: Q01DX001 (ip), vehicle: Klucel (hydroxypropylcellulose) (HPC)): 101 % of control
T/C (dose: 100.0 mg/kg/injection, schedule: Q01DX001 (ip), vehicle: Klucel (hydroxypropylcellulose) (HPC)): 98 % of control
T/C (dose: 200.0 mg/kg/injection, schedule: Q01DX001 (ip), vehicle: Klucel (hydroxypropylcellulose) (HPC)): 100 % of control

COc1ccc2c(c1OC)C(CC(C)=O)N1CCc3cc4c(cc3C1C2=O)OCO4 (centres undefined)
T/C [6]: 100 % of control
T/C [7]: 92 % of control
T/C [8]: 88 % of control

O=C(NC(=O)c1c(F)cccc1F)Nc1cccc(Oc2ncc(Cl)cn2)c1
T/C (dose: 15.0 mg/kg/injection, schedule: Q01DX005 (ip), vehicle: saline with Tween-80): 111 % of control
T/C (dose: 30.0 mg/kg/injection, schedule: Q01DX005 (ip), vehicle: saline with Tween-80): 96 % of control
T/C [3]: 94 % of control and 95 % of control

C=C1C(C(=O)OCC)=NNc2c(C(N)=O)ncn21
T/C (dose: 100.0 mg/kg/injection, schedule: Q04DX002 (ip), vehicle: Klucel (hydroxypropylcellulose) (HPC)): 96 % of control
T/C (dose: 200.0 mg/kg/injection, schedule: Q04DX002 (ip), vehicle: Klucel (hydroxypropylcellulose) (HPC)): 101 % of control
T/C (dose: 400.0 mg/kg/injection, schedule: Q04DX002 (ip), vehicle: Klucel (hydroxypropylcellulose) (HPC)): 104 % of control

Cc1nc2scc(-c3ccccc3)n2c(=O)c1CN1CCOCC1
T/C (dose: 37.5 mg/kg/injection, schedule: Q04DX002 (ip), vehicle: Klucel (hydroxypropylcellulose) (HPC)): 106 % of control
T/C (dose: 75.0 mg/kg/injection, schedule: Q04DX002 (ip), vehicle: Klucel (hydroxypropylcellulose) (HPC)): 97 % of control
T/C (dose: 150.0 mg/kg/injection, schedule: Q04DX002 (ip), vehicle: Klucel (hydroxypropylcellulose) (HPC)): 103 % of control
